{"source": "paper PMC6582486", "about": "“Stapled EGFR peptide reduces inflammatory breast cancer and inhibits additional HER-driven models of cancer” (Journal of Translational Medicine, 2019)", "key": {"[1]": {"experiment": "28-day toxicity study: injection site reactogenicity", "type": "in vivo, CD-1 mice", "details": "for Injection site reactogenicity: Animals with Signs: 28-day study", "method": "(§1) Toxicology was performed by IITRI. The study was conducted in compliance with the US Food and Drug Administration (FDA) good laboratory practice (GLP) Regulations (Code of Federal Regulations Title 21 Part 58) to evaluate the toxicokinetics, local tolerability, immunogenicity, and potential toxicity of SAH5-EJ1 following three times per week intravenous (IV) dosing for 28 days in mice. Male and female CD-1 IGS [Crl:CD1(ICR)] mice (135 per sex) were received from Wilmington, MA-based Charles River Laboratories, Inc.’s Kingston facility (Stone Ridge, NY).\nResponse measured at 6 and 24 hours post-injection."}, "[2]": {"experiment": "28-day toxicity study: survival, NOAEL", "type": "in vivo, CD-1 mice", "details": "for Survival (%): after 28 days, N = 10", "method": "as §1\nFinally, we confirmed the maximum tolerated dose of SAH5-EJ1, evaluating 5, 10, and 15 mg/kg body weight dosages (Table S3, Additional file 1). […] At 15 mg/kg, one male animal died from unknown causes and was classified as an accidental death. Therefore, 10 mg/kg was considered the no-observed-adverse-effect level (NOAEL). […] Increased spleen weights observed in 10 mg/kg and 15 mg/kg-treated mice most likely resulted from extramedullary hematopoiesis, also known as “blueberry muffin baby syndrome”, an asymptomatic event in which red blood cells accumulate outside of the bone marrow (Table S5, Additional file 1). Increased spleen size is likely due to an increase red blood cell production associated with IV injection-affiliated cell death. Clinical chemistry panels indicate that despite the high concentration of SAH5-EJ1 in the liver, liver function is not inhibited, with normal ranges of ALT/AST and total bilirubin (Table 2).\nMale (M) and Female (F) mice. Not including mice for recovery study (additional 10 mice/sex), toxicokinetics (56 mice/sex), or immunogenicity (18 mice/sex). Accidental male deaths on day 27/28 at 5mg/kg dosage and day 22/28 at 15 mg/kg dosage. Female death on day 3/28 at 15mg/kg dosage with hypoactivity noted on day 1."}}, "note": "Where a SMILES comes first, the peptide text is derived from it. Bridges are numbered along the chain shown (N, C = ends). [ ]: non-standard residue; d: D form. R8 = C=CCCCCCC[C@@](C)(N)C(=O)O; S5 = C=CCCC[C@](C)(N)C(=O)O"}
{"smiles": "CC[C@H](C)[C@H](NC(=O)[C@H](Cc1c[nH]cn1)NC(=O)[C@H](CCCNC(=N)N)NC(=O)[C@H](CCCNC(=N)N)NC(=O)[C@H](CCCNC(=N)N)NC(=O)[C@H](CCSC)NC(=O)[C@H](Cc1ccccc1)NC(=O)[C@H](C)NC(=O)[C@H](CCCNC(=N)N)NC(=O)[C@H](C)NC(=O)[C@H](CCC(N)=O)NC(=O)[C@H](CCCNC(=N)N)NC(=O)[C@H](C)NC(=O)[C@H](C)NC(=O)[C@H](C)NC(=O)[C@H](CCCNC(=N)N)NC(=O)[C@H](C)NC(=O)[C@@H](N)Cc1ccc(O)cc1)C(=O)N[C@H](C(=O)N[C@@H](CCCNC(=N)N)C(=O)N[C@@H](CCCCN)C(=O)N[C@@H](CCCNC(=N)N)C(=O)N[C@]1(C)CCCCCCC=CCCC[C@@](C)(C(=O)N[C@@H](CCCNC(=N)N)C(=O)N[C@@H](CCC(=O)O)C(N)=O)NC(=O)[C@H](CCC(N)=O)NC(=O)[C@H](CC(C)C)NC(=O)[C@H](CC(C)C)NC(=O)[C@H](CCCNC(=N)N)NC(=O)[C@H](CCCNC(=N)N)NC(=O)[C@H](CC(C)C)NC1=O)C(C)C", "note": "[SAH5-EJ1] (H-YARAAARQARAFMRRRHIVRKR[R8]LRRLLQ[S5]RE-NH2; staple 23-30)", "values": [{"measurement": "Edema: 0 - Normal, no swelling (animals)", "setting": "[1]; female, 15 mg/kg, 15 examined", "result": 15}, {"measurement": "Edema: 1 - Minimal, slight swelling (animals)", "setting": "[1]; female, 15 mg/kg, 15 examined", "result": 14}, {"measurement": "Edema: 2 - Mild, defined swelling (animals)", "setting": "[1]; female, 15 mg/kg, 15 examined", "result": 12}, {"measurement": "Edema: 3 - Moderate, defined swelling, raised border (animals)", "setting": "[1]; female, 15 mg/kg, 15 examined", "result": 1}, {"measurement": "Erythema and Eschar Formation (animals)", "setting": "[1]; female, 15 mg/kg, 15 examined", "result": 15}, {"measurement": "Erythema and Eschar: 0 - Normal (animals)", "setting": "[1]; female, 15 mg/kg, 15 examined", "result": 15}, {"measurement": "Erythema and Eschar: 1 - Minimal (animals)", "setting": "[1]; female, 15 mg/kg, 15 examined", "result": 10}, {"measurement": "Erythema and Eschar: 2 - Mild, bright pink/pale, distinct (animals)", "setting": "[1]; female, 15 mg/kg, 15 examined", "result": 14}, {"measurement": "Erythema and Eschar: 3 - Moderate, bright red, distinct (animals)", "setting": "[1]; female, 15 mg/kg, 15 examined", "result": 5}, {"measurement": "Erythema and Eschar: 4 - Severe, dark red, pronounced (animals)", "setting": "[1]; female, 15 mg/kg, 15 examined", "result": 6}, {"measurement": "Injection site reactogenicity: Animals with Signs", "setting": "[1]; female, 15 mg/kg, 15 examined", "result": 15}, {"measurement": "Edema (animals)", "setting": "[1]; male, 5 mg/kg, 10 examined", "result": 10}, {"measurement": "Edema: 0 - Normal, no swelling (animals)", "setting": "[1]; male, 5 mg/kg, 10 examined", "result": 10}, {"measurement": "Edema: 1 - Minimal, slight swelling (animals)", "setting": "[1]; male, 5 mg/kg, 10 examined", "result": 7}, {"measurement": "Edema: 2 - Mild, defined swelling (animals)", "setting": "[1]; male, 5 mg/kg, 10 examined", "result": 0}, {"measurement": "Edema: 3 - Moderate, defined swelling, raised border (animals)", "setting": "[1]; male, 5 mg/kg, 10 examined", "result": 0}, {"measurement": "Edema: 4 - Severe, pronounced swelling, raised border (animals)", "setting": "[1]; male, 5 mg/kg, 10 examined", "result": 0}, {"measurement": "Erythema and Eschar Formation (animals)", "setting": "[1]; male, 5 mg/kg, 10 examined", "result": 10}, {"measurement": "Erythema and Eschar: 0 - Normal (animals)", "setting": "[1]; male, 5 mg/kg, 10 examined", "result": 10}, {"measurement": "Erythema and Eschar: 1 - Minimal (animals)", "setting": "[1]; male, 5 mg/kg, 10 examined", "result": 3}, {"measurement": "Erythema and Eschar: 2 - Mild, bright pink/pale, distinct (animals)", "setting": "[1]; male, 5 mg/kg, 10 examined", "result": 2}, {"measurement": "Erythema and Eschar: 3 - Moderate, bright red, distinct (animals)", "setting": "[1]; male, 5 mg/kg, 10 examined", "result": 0}, {"measurement": "Erythema and Eschar: 4 - Severe, dark red, pronounced (animals)", "setting": "[1]; male, 5 mg/kg, 10 examined", "result": 1}, {"measurement": "Injection site reactogenicity: Animals with Signs", "setting": "[1]; male, 5 mg/kg, 10 examined", "result": 10}, {"measurement": "Edema (animals)", "setting": "[1]; male, 10 mg/kg, 10 examined", "result": 10}, {"measurement": "Edema: 0 - Normal, no swelling (animals)", "setting": "[1]; male, 10 mg/kg, 10 examined", "result": 10}, {"measurement": "Edema: 1 - Minimal, slight swelling (animals)", "setting": "[1]; male, 10 mg/kg, 10 examined", "result": 8}, {"measurement": "Edema: 2 - Mild, defined swelling (animals)", "setting": "[1]; male, 10 mg/kg, 10 examined", "result": 7}, {"measurement": "Edema: 3 - Moderate, defined swelling, raised border (animals)", "setting": "[1]; male, 10 mg/kg, 10 examined", "result": 1}, {"measurement": "Edema: 4 - Severe, pronounced swelling, raised border (animals)", "setting": "[1]; male, 10 mg/kg, 10 examined", "result": 1}, {"measurement": "Erythema and Eschar Formation (animals)", "setting": "[1]; male, 10 mg/kg, 10 examined", "result": 10}, {"measurement": "Erythema and Eschar: 0 - Normal (animals)", "setting": "[1]; male, 10 mg/kg, 10 examined", "result": 10}, {"measurement": "Erythema and Eschar: 1 - Minimal (animals)", "setting": "[1]; male, 10 mg/kg, 10 examined", "result": 6}, {"measurement": "Erythema and Eschar: 2 - Mild, bright pink/pale, distinct (animals)", "setting": "[1]; male, 10 mg/kg, 10 examined", "result": 8}, {"measurement": "Erythema and Eschar: 3 - Moderate, bright red, distinct (animals)", "setting": "[1]; male, 10 mg/kg, 10 examined", "result": 4}, {"measurement": "Erythema and Eschar: 4 - Severe, dark red, pronounced (animals)", "setting": "[1]; male, 10 mg/kg, 10 examined", "result": 2}, {"measurement": "Injection site reactogenicity: Animals with Signs", "setting": "[1]; male, 10 mg/kg, 10 examined", "result": 10}, {"measurement": "Edema (animals)", "setting": "[1]; male, 15 mg/kg, 15 examined", "result": 15}, {"measurement": "Edema: 0 - Normal, no swelling (animals)", "setting": "[1]; male, 15 mg/kg, 15 examined", "result": 15}, {"measurement": "Edema: 1 - Minimal, slight swelling (animals)", "setting": "[1]; male, 15 mg/kg, 15 examined", "result": 14}, {"measurement": "Edema: 2 - Mild, defined swelling (animals)", "setting": "[1]; male, 15 mg/kg, 15 examined", "result": 14}, {"measurement": "Edema: 3 - Moderate, defined swelling, raised border (animals)", "setting": "[1]; male, 15 mg/kg, 15 examined", "result": 7}, {"measurement": "Edema: 4 - Severe, pronounced swelling, raised border (animals)", "setting": "[1]; male, 15 mg/kg, 15 examined", "result": 2}, {"measurement": "Erythema and Eschar Formation (animals)", "setting": "[1]; male, 15 mg/kg, 15 examined", "result": 15}, {"measurement": "Erythema and Eschar: 0 - Normal (animals)", "setting": "[1]; male, 15 mg/kg, 15 examined", "result": 15}, {"measurement": "Erythema and Eschar: 1 - Minimal (animals)", "setting": "[1]; male, 15 mg/kg, 15 examined", "result": 11}, {"measurement": "Erythema and Eschar: 2 - Mild, bright pink/pale, distinct (animals)", "setting": "[1]; male, 15 mg/kg, 15 examined", "result": 15}, {"measurement": "Erythema and Eschar: 3 - Moderate, bright red, distinct (animals)", "setting": "[1]; male, 15 mg/kg, 15 examined", "result": 10}, {"measurement": "Erythema and Eschar: 4 - Severe, dark red, pronounced (animals)", "setting": "[1]; male, 15 mg/kg, 15 examined", "result": 6}, {"measurement": "Injection site reactogenicity: Animals with Signs", "setting": "[1]; male, 15 mg/kg, 15 examined", "result": 15}, {"measurement": "systemic or target organ toxicity", "setting": "[2]; 5, 10 and 15 mg/kg IV, 28-day repeat toxicity study", "result": "no evidence of any systemic or target organ toxicity"}, {"measurement": "NOAEL at 672 h", "setting": "[2]; both sexes, CD-1, mouse, in vivo, IV three times per week, 28 days, mice, read-out: no-observed-adverse-effect level (NOAEL)", "result": 10, "unit": "mg/kg"}, {"measurement": "Survival (%)", "setting": "[2]; female, 5 mg/kg", "result": 100, "unit": "%"}, {"measurement": "Survival (%)", "setting": "[2]; female, 10 mg/kg", "result": 100, "unit": "%"}, {"measurement": "Survival (%)", "setting": "[2]; female, 15 mg/kg", "result": 90, "unit": "%"}, {"measurement": "Survival (%)", "setting": "[2]; male, 5 mg/kg", "result": 90, "unit": "%"}, {"measurement": "Survival (%)", "setting": "[2]; male, 10 mg/kg", "result": 100, "unit": "%"}, {"measurement": "Survival (%)", "setting": "[2]; male, 15 mg/kg", "result": 90, "unit": "%"}]}
